Experimental data from patent publication US9073835B2, “N-acylthiourea and N-acylurea inhibitors of the Hedgehog protein signalling pathway” (Centre National De La Recherche Scientifique, priority 2008, dated 2015).

Experiments:
mouse Smoothened protein = target: T1, mouse Smoothened protein (Mus musculus, UniProt P56726); test: Competitive Bodipycyclopamine binding on HEK293 cells transfected with mouse Smoothened; conditions: for IC50: 5 nM Bodipycyclopamine, 2 hours at 37° C., HEK293 cells expressing mouse Smoothened; for Bodipycyclopamine binding competition: fluorescence microscopy, FIGS. 2 and 3
T1 construct: expressed in transfected cells; host or cells: HEK293
T1 sequence (P56726 33-793): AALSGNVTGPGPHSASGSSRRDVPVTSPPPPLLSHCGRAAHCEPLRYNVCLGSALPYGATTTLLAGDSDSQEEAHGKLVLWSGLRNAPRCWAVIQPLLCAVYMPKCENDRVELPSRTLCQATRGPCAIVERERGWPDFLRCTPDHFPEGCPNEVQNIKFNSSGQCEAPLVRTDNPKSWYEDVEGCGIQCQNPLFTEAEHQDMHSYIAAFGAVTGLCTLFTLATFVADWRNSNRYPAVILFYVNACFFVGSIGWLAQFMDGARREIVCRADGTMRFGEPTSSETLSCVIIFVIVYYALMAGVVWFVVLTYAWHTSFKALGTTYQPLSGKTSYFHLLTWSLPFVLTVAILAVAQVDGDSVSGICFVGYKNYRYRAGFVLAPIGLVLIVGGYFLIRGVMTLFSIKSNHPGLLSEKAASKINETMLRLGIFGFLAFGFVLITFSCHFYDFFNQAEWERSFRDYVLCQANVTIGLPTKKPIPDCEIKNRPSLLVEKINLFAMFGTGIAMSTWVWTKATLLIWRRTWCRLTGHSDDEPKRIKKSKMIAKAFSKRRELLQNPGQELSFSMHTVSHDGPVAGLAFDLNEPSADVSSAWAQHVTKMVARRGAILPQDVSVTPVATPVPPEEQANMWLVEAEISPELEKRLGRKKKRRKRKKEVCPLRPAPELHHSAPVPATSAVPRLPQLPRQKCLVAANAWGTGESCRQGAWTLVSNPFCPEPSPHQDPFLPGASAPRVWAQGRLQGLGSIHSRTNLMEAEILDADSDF
Description: HEK293 cells were plated in a quantity of 70 000 cells per well onto glass cover slips treated with poly-D-lysine into 24-well plates, and transfected the next day with 0.25 μg of plasmid encoding the mouse Smoothened protein (Masdeu C., Faure H., Coulombe J., Schoenfelder A., Mann A., Brabet I., Pin J-P., Traiffort E. and Ruat M., Identification and characterization of Hedgehog modulator properties after functional coupling of Smoothened to G15, Biochem Biophys Res. Commun., 2006, 349:471-479), using 0.7 μL of fugene6 (Roche Biochemicals). After 48 hours, the culture medium was eliminated, the cells were rinsed once with 1 mL of a phosphate buffer solution, PBS (Phosphate Buffered Saline), then fixed for 20 minutes in the presence of an iced 4% solution of paraformaldehyde (PFA) and 0.12M glucose in a PBS phosphate buffer solution. The cells were then rinsed twice and washed twice for 5 minutes with 1 mL of a phosphate buffer solution and 0.5% of fetal calf serum (PBS-FCS). Next, 1 mL of Bodipycyclopamine (BC) (Chen, J. K., Taipale, J., Cooper, M. K., and Beachy, P. A., Genes Dev., 2002, 16 (21), 2743-2748), diluted to 5 nM in PBS-FCS, in the presence of compounds 31 and 38 of the invention, was applied to the cells for 2 hours at 37° C. The cells were then washed twice for 5 minutes with 1 mL of PBS-FCS and brought into the presence of 1 mL of a PBS 1× phosphate buffer solution. Finally, the cover slips were mounted on a glass slide in the presence of Vectashield containing DAPI (4′,6′-DiAmidino-2-Phenyl Indole) to stain the cell nuclei (Vector).
In FIG. 2, the intensity of the fluorescence was analyzed using Simple PCI 6.2 software (Hamamatsu Corporation), then related to the surface area of the nuclei present in the photograph.

[1] = test system: Hedgehog protein signaling pathway; test: Inhibition of SAG-induced alkaline phosphatase activity (differentiation) in C3H10T1/2 cells; format: cell-based; conditions: for inhibition at 10 µM: C3H 10T1/2, 10 μM test compound
Description: The effect of compounds with formula (I) as claimed in the invention on inhibition of the Hedgehog protein signaling pathway was determined by analysis of differentiation in the pluripotent fibroblast cell line C3H10T1/2 after activation of this pathway in these cells using a synthetic activator: SAG.
The compounds with formula (I) to be tested were dissolved in dimethylsulfoxide to a concentration of 10 mM, then stored at a temperature of −20° C. until use.
The pluripotent fibroblast cell line C3H10T1/2 (ATCC) was cultivated under the conditions recommended by the ATCC. These cells were activated using 0.1 μM of SAG, employing the methods described by Chen et al., Proc. Natl. Acad. Sci. USA, 2002, 99, 14071 and Frank-Kamenetsky et al., J. Biol., 2002, 1, 10.
Activation with SAG provokes differentiation of the cell line and allows them to express alkaline phosphatase. It is then possible to measure the activity of the Hedgehog protein signaling pathway by measuring the alkaline phosphatase activity.
The C3H10T1/2 cells were plated onto 96-well plates at a density of […], 24 hours before addition of the test compounds in a concentration of 1 nM to 30 μM and in the presence of 0.1 μM of SAG using DMEM supplemented with 10% fetal calf serum as the culture medium. The tests were carried out in quadruplicate. The plates were then incubated for 5-6 days at a temperature of 37° C. in an atmosphere of 5% CO2. The cells were washed in a cold phosphate buffer (“Phosphate Buffer Serum”: PBS) then lysed by sonication at 4° C. in 50 μl of a solution containing 0.9% of NaCl and 0.2% of Triton X-100.
By way of comparison, the activity of a known inhibitor of the Hedgehog protein signaling pathway, CURIS 61 414, as described, for example, by Frank-Kamenetsky M. et al. (J. Biol., 2002, 1, 10), was tested under the same conditions as those used to test the various compounds with formula (I) as claimed in the invention.
The alkaline phosphatase activity measurement in the lysates obtained was then carried out using the method described by Pepinsky et al. (J. Biol. Chem., 1998, 273, 14037). After adding 100 μl of reaction buffer (200 mM Tris-HCl; pH 10.5; 0.4 M of 2-amino-2-methylpropanol and 8 mM of MgCl2) and 50 μl of substrate (4 mM of disodium p-nitrophenyl phosphate), the lysates were incubated at 37° C. for 30-60 min, then the optical density was read at a wavelength of 415 nm.

[2] = Mus musculus, percentage of alkaline phosphatase activity induced by SAG
[3] = Mus musculus, C3H 10T1/2, after induction by 0.1 μM SAG

| Molecule | IC50 [1, 3] | inhibition at 10 µM [1, 2] | other results |
| --- | --- | --- | --- |
| N-[[[3-(benzoylamino)phenyl]amino]thioxomethyl]-3,4,5-methoxy-benzamide [Compound 38] | – | – | IC50 (mouse Smoothened protein): 500 nM; Bodipycyclopamine binding competition (mouse Smoothened protein): binding competition was observed; % INHIBITION of alkaline phosphatase activity ([1]; 10 μM test compound, percentage of alkaline phosphatase activity induced by SAG): A (the letter A corresponds to an inhibition of more than 80%); IC50 ([1]; after induction by 0.1 μM SAG): 0.01 to 1 µM |
| CC1=C2C[C@H]3[C@@H](CC=C4C[C@@H](O)CC[C@@]43C)[C@@H]2CC[C@]12O[C@@H]1C[C@H](C)CN[C@H]1[C@H]2C [Cyclopamine, reference compound] | – | – | Bodipycyclopamine binding competition (mouse Smoothened protein): binding competition was observed |
| COc1cc(C(=O)NC(=S)Nc2cccc(-n3ccc4ccccc43)c2)cc(OC)c1OC [Compound 57, N-(3-(1H-indol-1-yl)phenylcarbamothioyl)-3,4,5-trimethoxybenzamide] | 1 to 3 µM | > 80% | – |
| COc1cc(C(=O)NC(=O)Nc2cccc(NC(=O)c3ccc(-c4ccccc4)cc3)c2C)cc(OC)c1OC [Compound 45] | 0.01 to 1 µM | > 80% | – |
| COc1cc(C(=O)NC(=S)Nc2ccc(Cl)c(C(=O)Nc3ccc(Cl)cc3)c2)cc(OC)c1OC [Compound 43] | – | > 80% | – |
| COc1cc(C(=O)NC(=S)Nc2cccc(NC(=O)c3ccc4ccccc4c3)c2)cc(OC)c1OC [Compound 9, N-[[[3-(2-naphthoylamino)phenyl]amino]thioxomethyl]-3,4,5-methoxy-benzamide] | – | 20 to 80% | – |
| COc1cc(C(=O)NC(=S)Nc2cccc(NC(=O)c3ccc(-c4ccccc4)cc3)c2C)cc(OC)c1OC [Compound 46] | – | 5 to 20% | – |
| COc1cc(C(=O)NC(=O)Nc2cccc(NC(=O)c3ccc(Cl)cc3)c2)cc(OC)c1OC [Compound 47, N-[[[-3-(4-chloro-benzoylamino)phenyl]amino]oxomethyl]-3,4,5-methoxy-benzamide] | – | > 80% | – |
| COc1cc(C(=O)NC(=S)Nc2cccc(-c3cn4ccccc4n3)c2)cc(OC)c1OC [Compound 55, N-(3-(imidazo[1,2-a]pyridin-2-yl)phenylcarbamothioyl)-3,4,5-trimethoxybenzamide] | 0.01 to 1 µM | > 80% | – |
| COc1ccc(C(=O)NC(=O)Nc2cccc(NC(=O)c3ccccc3)c2)cc1 [Compound 49, N-[[[-3-(benzoylamino)phenyl]amino]oxomethyl]-4-methoxy-benzamide] | – | 20 to 80% | – |
| CCOc1cc(C(=O)NC(=O)Nc2cccc(NC(=O)c3ccccc3)c2)cc(OCC)c1OCC [Compound 29, N-[[[3-(benzoylamino)phenyl]amino]oxomethyl]-3,4,5-ethoxy-benzamide] | – | 20 to 80% | – |
| COc1cc(C(=O)NC(=O)Nc2cccc(NC(=O)c3ccc(-c4ccccc4)cc3)c2)cc(OC)c1OC [Compound 7, N-[[[3-(4-phenyl-benzoylamino)phenyl]amino]oxomethyl]-3,4,5-methoxy-benzamide] | – | 20 to 80% | – |
| COc1cc(OC)cc(C(=O)NC(=S)Nc2cccc(NC(=O)c3ccccc3)c2)c1 [Compound 18, N-[[[3-(benzoylamino)phenyl]amino]thioxomethyl]-3,5-methoxy-benzamide] | 1 to 3 µM | > 80% | – |
| COc1cc(C(=O)NC(=S)Nc2cc(Br)cc(C(=O)Nc3ccccc3)c2)cc(OC)c1OC [Compound 41] | – | 20 to 80% | – |

More lines, main results first:

| IC50 [1, 3] | Molecule | inhibition at 10 µM [1, 2] | other results |
| --- | --- | --- | --- |
| 1 to 3 µM | COc1cc(C(=O)NC(=S)Nc2cccc(NC(=O)c3ccccc3Cl)c2)cc(OC)c1OC [Compound 2, N-[[[3-(2-chloro-benzoylamino)phenyl]amino]thioxomethyl]-3,4,5-methoxy-benzamide] | > 80% | – |
| 1 to 3 µM | COc1ccc(C(=O)Nc2cccc(NC(=S)NC(=O)c3cc(OC)c(OC)c(OC)c3)c2)cc1 [Compound 1, N-[[[3-(4-methoxy-benzoylamino)phenyl]amino]thioxomethyl]-3,4,5-methoxy-benzamide] | > 80% | melting point: 147 °C |
| 1 to 3 µM | COc1ccccc1C(=O)Nc1cccc(NC(=S)NC(=O)c2cc(OC)c(OC)c(OC)c2)c1 [Compound 4, N-[[[3-(2-methoxy-benzoylamino)phenyl]amino]thioxomethyl]-3,4,5-methoxy-benzamide] | > 80% | – |
| 1 to 3 µM | COc1cc(C(=O)NC(=S)Nc2cccc(-c3cn4ccsc4n3)c2)cc(OC)c1OC [Compound 58, N-(3-(imidazo[2,1-b]thiazol-6-yl)phenylcarbamothioyl)-3,4,5-trimethoxybenzamide] | > 80% | – |
| 0.01 to 1 µM | COc1cc(C(=O)NC(=O)Nc2cccc(-c3cc4ccccc4[nH]3)c2)cc(OC)c1OC [Compound 53, N-(3-(1H-indol-2-yl)phenylcarbamoyl)-3,4,5-trimethoxybenzamide] | > 80% | – |
| 0.01 to 1 µM | COc1cc(C(=O)NC(=S)Nc2cccc(NC(=O)c3ccc(-c4ccccc4)cc3)c2)cc(OC)c1OC [Compound 5, N-[[[3-(4-phenyl-benzoylamino)phenyl]amino]thioxomethyl]-3,4,5-methoxy-benzamide] | 20 to 80% | – |
| 0.01 to 1 µM | CCOc1cc(C(=O)NC(=S)Nc2cccc(NC(=O)c3ccccc3)c2)cc(OC)c1OCC [Compound 20, N-[[[3-(benzoylamino)phenyl]amino]thioxomethyl]-3,4-ethoxy-5-methoxy-benzamide] | > 80% | – |
| 0.01 to 1 µM | COc1cc(C(=O)NC(=O)Nc2cccc(NC(=O)c3ccccc3)c2)cc(OC)c1OC [Compound 31, N-[[[3-(benzoylamino)phenyl]amino]oxomethyl]-3,4,5-methoxy-benzamide] | > 80% | IC50 (mouse Smoothened protein): 120 nM; Bodipycyclopamine binding competition (mouse Smoothened protein): binding competition was observed |
